Several values for one entry are separate records, joined by “and”; a condition that tells them apart may be missing. Equal entries are not always repeated.
How the values were obtained:
Type in all cases: cell-based, human
SNAT1/2 = assay: FMP assay: depolarisation by amino acid substrates in amino acid depleted HCC1806 cells
Description: The FLIPR Membrane Potential Blue Explorer Kit (Molecular Devices) was used to characterise inhibitors and to optimise a high-throughput compound screen. Cells were seeded at approximately 60,000 cells/well on a 96-well plate and allowed to attach and grow overnight in a cell incubator. […] Cells were then washed once with mHBSS and incubated with 50 µl of the mHBSS-resuspended FMP assay dye and 50 µl of mHBSS (with or without inhibitors) and incubated at room temperature for 30 min. The plate was then placed in an EnSpire Multimode plate reader (PerkinElmer) and four sequential measurements of fluorescence were recorded as a baseline reference. Immediately after the baseline measurements were taken, 25 µl of 5 mM glutamine dissolved in mHBSS was injected into each well and the plate was shaken orbitally for 5 s before a series of consecutive fluorescence measurements were taken. The excitation wavelength was set to 530 nm and the emission was detected at 565 nm. […] After the assay was complete, the liquid content of the plate was carefully removed, and the cell monolayer inspected to ensure it remained intact throughout the course of the assay.

HCC1806 wild-type cells = assay: FMP assay in the absence of amino acid substrate (non-specific effects)
Description: The FLIPR Membrane Potential Blue Explorer Kit (Molecular Devices) was used to characterise inhibitors and to optimise a high-throughput compound screen. Cells were seeded at approximately 60,000 cells/well on a 96-well plate and allowed to attach and grow overnight in a cell incubator. The next day, the cells were washed once with mHBSS and incubated in a starvation medium (composed of mHBSS with 1% dialysed heat-inactivated FBS, 23 mM NaHCO3, 10 U/ml penicillin and 10 μg/ml streptomycin) for 24 h. Cells were then washed once with mHBSS and incubated with 50 µl of the mHBSS-resuspended FMP assay dye and 50 µl of mHBSS (with or without inhibitors) and incubated at room temperature for 30 min. The plate was then placed in an EnSpire Multimode plate reader (PerkinElmer) and four sequential measurements of fluorescence were recorded as a baseline reference. […] The excitation wavelength was set to 530 nm and the emission was detected at 565 nm. The Δ fluorescent signal reported in the figures was taken 30 s after substrate addition. After the assay was complete, the liquid content of the plate was carefully removed, and the cell monolayer inspected to ensure it remained intact throughout the course of the assay.

SKOV3 cells [1] = assay: [14C]alanine uptake in non-depleted SKOV3 cells; settings: amino acid replete SKOV3 cells
Description: Functional characterisation of plasma membrane transporters in human cancer cells was determined at 37°C using an array of radiolabelled amino acid substrates. Modified Hanks HEPES-buffered salts solution (mHBSS; 137 mM NaCl; 5.4 mM KCl; 2.7 mM K2HPO4; 1 mM CaCl2; 0.5 mM MgCl2; 0.44 mM KH2PO4; 0.4 mM MgSO4; 5 mM D-glucose; 5 mM HEPES; pH 7.4) was used to wash and incubate cells where sodium dependent transport was measured, while N-methyl-D-glucamine (NMDG) and potassium salts substituted sodium in NMDG mHBSS to measure sodium independent uptake. For the assay, cells were seeded in 35 mm dishes and, once confluent, were washed thrice with warm mHBSS solution and incubated with mHBSS containing an 100 µM amino acid at a final specific activity of ≥2000 cpm/nmol (U-[^14C]amino acids were from PerkinElmer). After 6 min, cells were washed thrice with ice-cold mHBSS, lysed with 500 µl of 0.1 M HCl, detached with a cell scraper and triturated. A 400 µl aliquot was used for scintillation counting, while the remainder was saved for protein mass quantification by Bradford assay. Transport rates were normalised to the protein content of the culture dish.

SKOV3 cells [2] = assay: Growth assay (IncuCyte confluence), SKOV3; set-up: key to Growth (Figure 6A): % confluence; settings: for Growth (Figure 6A): SKOV3
Description: (§1) Cells were seeded on 96-well flat bottom plates at approximately 3000 cells/well and incubated in growth medium (DMEM/F12 supplemented with 10% FBS, 2 mM glutamine) for 24 h. The next day, the growth medium was aspirated and exchanged with 300 μL/well of growth medium containing compounds at the indicated concentration. For live cell analysis, plates were placed in the IncuCyte system (Essen Bioscience), which was housed in a cell incubator (37°C, humidified atmosphere composed of 95% air and 5% CO2) and confluence measured at 6-h intervals or at the assay endpoint when untreated control cells reached a confluency >90%. Antibiotics (10 U/mL penicillin and 10 μg/ml streptomycin) were included in the treatment solutions.
(§2) Growth curves were generated using the Gompertz function of OriginPro software: y=ae^−e^(−k(x−xc))
(§3) Where a is the maximum confluence or upper asymptote, k is the growth rate coefficient, xc is the time point at which 50% confluence is reached (inflection point) and e is Euler’s number. Cell growth data are shown as % confluence.

HCC1806 cells = assay: Growth assay (IncuCyte confluence), HCC1806; settings: HCC1806, growth medium
Description: as §1, §2, §3

`NC(=O)CC[C@H](N)C(=O)O` [Glutamine, glutamine] was tested, and the “FMP response as substrate” value (SNAT1/2; 1 mM) was “strongest response”, the Km (SNAT1/2; FMP signal plateau vs glutamine concentration, HCC1806 AA- (24h)) was 120 ± 10 µM and the FMP fluorescence reading (SNAT1/2; glutamine 0.01mM, t=60 s) was 68858 and 69253 and 69708. The FMP fluorescence reading (SNAT1/2; glutamine 0.01mM, t=75 s) was 69325 and 69681 and 70188, the FMP fluorescence reading (SNAT1/2; glutamine 0.01mM, t=90 s) was 69269 and 70070 and 70405 and the FMP fluorescence reading (SNAT1/2; glutamine 0.01mM, t=105 s) was 69763 and 69788 and 70466. The FMP fluorescence reading (SNAT1/2; glutamine 0.03mM (c24-c26), t=60 s) was 77460 and 80576 and 83628, the FMP fluorescence reading (SNAT1/2; glutamine 0.03mM (c24-c26), t=75 s) was 77730 and 80978 and 84391 and the FMP fluorescence reading (SNAT1/2; glutamine 0.03mM (c24-c26), t=90 s) was 78184 and 81512 and 84232. The FMP fluorescence reading (SNAT1/2; glutamine 0.03mM (c24-c26), t=105 s) was 78227 and 82096 and 85186, the FMP fluorescence reading (SNAT1/2; glutamine 0.03mM (last group, c32-c34), t=60 s) was 64072 and 69800 and 70295 and the FMP fluorescence reading (SNAT1/2; glutamine 0.03mM (last group, c32-c34), t=75 s) was 63883 and 70289 and 71073. The FMP fluorescence reading (SNAT1/2; glutamine 0.03mM (last group, c32-c34), t=90 s) was 63947 and 70196 and 70790, the FMP fluorescence reading (SNAT1/2; glutamine 0.03mM (last group, c32-c34), t=105 s) was 64771 and 70484 and 71450 and the FMP fluorescence reading (SNAT1/2; glutamine 0.1mM, t=60 s) was 88925 and 96285 and 98180. For the same compound, the FMP fluorescence reading (SNAT1/2; glutamine 0.1mM, t=75 s) was 90234 and 97546 and 98972, the FMP fluorescence reading (SNAT1/2; glutamine 0.1mM, t=90 s) was 91221 and 98690 and 100400 and the FMP fluorescence reading (SNAT1/2; glutamine 0.1mM, t=105 s) was 92076 and 98971 and 100952. The FMP fluorescence reading (SNAT1/2; glutamine 0.3mM, t=60 s) was 99455 and 107961 and 111369, the FMP fluorescence reading (SNAT1/2; glutamine 0.3mM, t=75 s) was 100398 and 109749 and 113586 and the FMP fluorescence reading (SNAT1/2; glutamine 0.3mM, t=90 s) was 101543 and 111206 and 114721. For the same compound, the FMP fluorescence reading (SNAT1/2; glutamine 0.3mM, t=105 s) was 102418 and 111967 and 115020, the FMP fluorescence reading (SNAT1/2; glutamine 1mM, t=60 s) was 112569 and 120148 and 129663 and the FMP fluorescence reading (SNAT1/2; glutamine 1mM, t=75 s) was 115039 and 122576 and 131835. The FMP fluorescence reading (SNAT1/2; glutamine 1mM, t=90 s) was 116433 and 124735 and 133470, the FMP fluorescence reading (SNAT1/2; glutamine 1mM, t=105 s) was 117747 and 125438 and 134724 and the FMP fluorescence reading (SNAT1/2; glutamine 1mM, t=120 s) was 118812 and 126597 and 134693. For the same compound, the FMP fluorescence reading (SNAT1/2; glutamine 3mM, t=60 s) was 133412 and 124199 and 129325, the FMP fluorescence reading (SNAT1/2; glutamine 3mM, t=75 s) was 135706 and 127374 and 131981 and the FMP fluorescence reading (SNAT1/2; glutamine 3mM, t=90 s) was 138077 and 129014 and 134980. For the same compound, the FMP fluorescence reading (SNAT1/2; glutamine 3mM, t=105 s) was 139888 and 130819 and 136553, the FMP fluorescence reading (SNAT1/2; glutamine 3mM, t=120 s) was 140944 and the FMP fluorescence reading (SNAT1/2; glutamine 10mM, t=60 s) was 123199 and 132978 and 133617. The FMP fluorescence reading (SNAT1/2; glutamine 10mM, t=75 s) was 127611 and 136168 and 137553, the FMP fluorescence reading (SNAT1/2; glutamine 10mM, t=90 s) was 130129 and 138788 and 140464 and the FMP fluorescence reading (SNAT1/2; glutamine 10mM, t=105 s) was 132559 and 141221 and 142567.

`Cc1ccc(S(=O)(=O)N(C)c2ccsc2C(=O)NCc2ccccc2C(F)(F)F)cc1` [Compound 57_E, 3-(N-methyl (4-methylphenyl)sulfonamido)-N-(2-trifluoromethylbenzyl)thiophene-2-carboxamide] was tested, and the “effect on FMP signal without substrate” value (HCC1806 wild-type cells; 30 µM) was “small hyperpolarisation”, the “FMP fluorescence trace (Figure 4C)” value (HCC1806 wild-type cells; time 0) was 66214 and 65985 and 59075 and the “FMP fluorescence trace (Figure 4C)” value (HCC1806 wild-type cells; time 20) was 50115 and 66503 and 60514. The “FMP fluorescence trace (Figure 4C)” value (HCC1806 wild-type cells; time 40) was 49573 and 67066 and 60917, the “FMP fluorescence trace (Figure 4C)” value (HCC1806 wild-type cells; time 60) was 49249 and 67578 and 60989 and the “FMP fluorescence trace (Figure 4C)” value (HCC1806 wild-type cells; time 80) was 48925 and 68056 and 61565. The “FMP fluorescence trace (Figure 4C)” value (HCC1806 wild-type cells; time 100) was 48207 and 68319 and 61663, the “FMP fluorescence trace (Figure 4C)” value (HCC1806 wild-type cells; time 120) was 47392 and 68434 and 62185 and the “FMP fluorescence trace (Figure 4C)” value (HCC1806 wild-type cells; time 140) was 47194 and 68990 and 62194. The “FMP fluorescence trace (Figure 4C)” value (HCC1806 wild-type cells; time 160) was 46255 and 69305 and 62352, the “FMP fluorescence trace (Figure 4C)” value (HCC1806 wild-type cells; time 180) was 45269 and 69919 and 62492 and the “FMP fluorescence trace (Figure 4C)” value (HCC1806 wild-type cells; time 200) was 44480 and 70206 and 63053. For the same compound, the “FMP fluorescence trace (Figure 4C)” value (HCC1806 wild-type cells; time 220) was 43946 and 70155 and 63572, the “FMP fluorescence trace (Figure 4C)” value (HCC1806 wild-type cells; time 240) was 43376 and 70703 and 63707 and the “FMP fluorescence trace (Figure 4C)” value (HCC1806 wild-type cells; time 260) was 42447 and 71161 and 64093. The “FMP fluorescence trace (Figure 4C)” value (HCC1806 wild-type cells; time 280) was 41764 and 71707 and 64350, the “FMP fluorescence trace (Figure 4C)” value (HCC1806 wild-type cells; time -20) was 65818 and 65842 and 59063 and the “FMP fluorescence trace (Figure 4C)” value (HCC1806 wild-type cells; time -40) was 65477 and 66036 and 58494. For the same compound, the “inhibition of [14C]alanine uptake” value (SKOV3 cells [1]) was “did not inhibit any transporter in this cell line”, the “growth of SKOV3 cells” value (SKOV3 cells [2]; 57E 20 µM alone) was “did not slow growth” and the tolerated concentration (SKOV3 cells [2]; SKOV3, growth medium) was “up to 30 μM”. For the same compound, the “Growth (Figure 6A)” value (SKOV3 cells [2]; concentration 1) was 88.8 and 91.35 and 86.25, the “Growth (Figure 6A)” value (SKOV3 cells [2]; concentration 3) was 85.9 and 94.3 and 88.85 and the “Growth (Figure 6A)” value (SKOV3 cells [2]; concentration 10) was 89 and 93.8 and 85. For the same compound, the “Growth (Figure 6A)” value (SKOV3 cells [2]; concentration 30) was 64.8 and 80.1 and 77.7, the “Growth (Figure 6A)” value (SKOV3 cells [2]; concentration 100) was 70.05 and 72.4 and 76.75 and the tolerated concentration (HCC1806 cells) was “up to 30 μM”.

— publication PMC9532951, “Identification and characterization of a novel SNAT2 (SLC38A2) inhibitor reveals synergy with glucose transport inhibition in cancer cells” (Frontiers in Pharmacology, 2022)
